Assay results published in publication PMC10184535, “An HR2-Mimicking Sulfonyl-γ-AApeptide Is a Potent Pan-coronavirus Fusion Inhibitor with Strong Blood–Brain Barrier Permeability, Long Half-Life, and Promising Oral Bioavailability” (ACS Central Science, 2023).
Read-outs that look alike come from different tables or passages of the source.

Experiments:
[1] = test system: pseudotyped MERS-CoV; details: 48 h
[2] = test system: pseudotyped SARS-CoV; details: 48 h
[3] = test system: SARS-CoV-2 PsV; details: previously reported EK1 peptide; read-out: IC50, SARS-CoV-2 PsV infection, previously reported; cited from earlier work
[4] = test system: pseudotyped bat SARSr-CoV WIV1; details: 48 h
[5] = test system: pseudotyped HCoV-NL63; details: 48 h
[6] = target: T1, HR1 peptide (911–987) (Severe acute respiratory syndrome coronavirus 2, UniProt P0DTC2); assay: Fluorescence polarization binding to HR1 peptide; design: species or system SARS-CoV-2
T1 construct: purchased NovoPep Limited

[7] = test system: SARS-CoV-2 PsV; details: 48 h
[8] = PAMPA-GIT; details: at three different pH values

Row | SMILES | Kd [6] [nM] | IC50 [7] [nM] | other results
1 | CC[C@H](C)[C@H](NC(=O)[C@H](C)NC(=O)[C@H](CCC(=O)O)NC(=O)[C@H](CCC(=O)O)NC(=O)[C@H](CC(C)C)NC(=O)[C@H](CCCCN)NC(=O)[C@H](CCCCN)NC(=O)[C@H](CCSC)NC(=O)[C@H](CCC(=O)O)NC(=O)[C@H](Cc1ccc(O)cc1)NC(=O)[C@H](CCC(=O)O)NC(=O)[C@H](CC(C)C)NC(=O)[C@H](CC(=O)O)NC(=O)[C@H](CC(C)C)NC(=O)[C@H](Cc1ccccc1)NC(=O)[C@@H](NC(=O)[C@@H](NC(=O)[C@H](CC(N)=O)NC(=O)[C@@H](NC(=O)[C@H](CCC(N)=O)NC(=O)[C@H](CC(=O)O)NC(=O)[C@H](CC(C)C)NC(=O)[C@@H](N)CO)[C@@H](C)CC)C(C)C)[C@@H](C)O)C(=O)N[C@@H](CCCCN)C(=O)N[C@@H](CCCCN)C(=O)N[C@@H](CC(C)C)C(=O)N[C@@H](CCC(=O)O)C(=O)N[C@@H](CCC(=O)O)C(=O)N[C@@H](CO)C(=O)N[C@@H](Cc1ccc(O)cc1)C(=O)N[C@H](C(=O)N[C@@H](CC(=O)O)C(=O)N[C@@H](CC(C)C)C(=O)N[C@@H](CCCCN)C(=O)N[C@@H](CCC(=O)O)C(=O)N[C@@H](CC(C)C)C(=O)O)[C@@H](C)CC [EK1] | – | – | IC50 [1]: 210 nM; IC50 [2]: 1210 nM; IC50 [3]: 2380 nM; IC50 [4]: 19000 nM; IC50 [5]: 4170 nM
2 | CC(=O)N[C@H](CC(C)C)CN(CC(=O)N[C@H](CCCCN)CN(CC(=O)N[C@H](CC(C)C)CN(CC(=O)N[C@H](CCC(=O)O)CN(CC(=O)N[C@H](CC(C)C)CN(CC(=O)N[C@H](CCC(=O)O)CN(CC(=O)N[C@H](C)CN(CC(=O)N[C@H](CCCCN)CN(CC(=O)N[C@H](C)CN(CC(=O)N[C@H](CCC(=O)O)CN(CC(=O)N[C@H](CC(C)C)CN(CC(N)=O)S(=O)(=O)CC(C)C)S(C)(=O)=O)S(=O)(=O)CCN)S(C)(=O)=O)S(=O)(=O)CCN)S(=O)(=O)CC(C)C)S(=O)(=O)CCN)S(=O)(=O)CCN)S(C)(=O)=O)S(=O)(=O)CCN)S(=O)(=O)CCN [XY1] | 287 | – | –
3 | CC(=O)N[C@H](CC(C)C)CN(CC(=O)N[C@H](CCCCN)CN(CC(=O)N[C@H](CC(C)C)CN(CC(=O)N[C@H](CCC(=O)O)CN(CC(=O)N[C@H](CC(C)C)CN(CC(=O)N[C@H](CCC(=O)O)CN(CC(=O)N[C@H](C)CN(CC(=O)N[C@H](CCCCN)CN(CC(=O)N[C@H](C)CN(CC(=O)N[C@H](CCC(=O)O)CN(CC(=O)N[C@H](CC(C)C)CN(CC(N)=O)S(=O)(=O)CC(C)C)S(=O)(=O)CC(C)C)S(=O)(=O)CCN)S(C)(=O)=O)S(=O)(=O)CCN)S(=O)(=O)CC(C)C)S(=O)(=O)CCN)S(=O)(=O)CCN)S(C)(=O)=O)S(=O)(=O)CCN)S(=O)(=O)CCN [XY2] | 329 | – | –
4 | CC(=O)N[C@H](CC(C)C)CN(CC(=O)N[C@H](CCCCN)CN(CC(=O)N[C@H](CC(C)C)CN(CC(=O)N[C@H](CCC(=O)O)CN(CC(=O)N[C@H](CC(C)C)CN(CC(=O)N[C@H](CCC(=O)O)CN(CC(=O)N[C@H](C)CN(CC(=O)N[C@H](CCCCN)CN(CC(=O)N[C@H](C)CN(CC(=O)N[C@H](CCC(=O)O)CN(CC(=O)N[C@H](CC(C)C)CN(CC(N)=O)S(=O)(=O)CC(C)C)S(C)(=O)=O)S(=O)(=O)CCN)S(=O)(=O)CC(C)C)S(=O)(=O)CCN)S(=O)(=O)CC(C)C)S(=O)(=O)CCN)S(=O)(=O)CCN)S(C)(=O)=O)S(=O)(=O)CCN)S(=O)(=O)CCN [XY3] | 426 | – | –
5 | CC(=O)N[C@H](CC(C)C)CN(CC(=O)N[C@H](CCCCN)CN(CC(=O)N[C@H](CC(C)C)CN(CC(=O)N[C@H](CCC(=O)O)CN(CC(=O)N[C@H](CC(C)C)CN(CC(=O)N[C@H](CCC(=O)O)CN(CC(=O)N[C@H](C)CN(CC(=O)N[C@H](CCCCN)CN(CC(=O)N[C@H](C)CN(CC(=O)N[C@H](CCC(=O)O)CN(CC(=O)N[C@H](CC(C)C)CN(CC(=O)NCCCCCC(=O)NCCCCCC(=O)N[C@@H](CSCC(=O)OCCOCCOCCOCCO[C@H]1CC[C@@]2(C)C(=CC[C@H]3[C@@H]4CC[C@H]([C@H](C)CCCC(C)C)[C@@]4(C)CC[C@@H]32)C1)C(N)=O)S(=O)(=O)CC(C)C)S(C)(=O)=O)S(=O)(=O)CCN)S(C)(=O)=O)S(=O)(=O)CCN)S(=O)(=O)CC(C)C)S(=O)(=O)CCN)S(=O)(=O)CCN)S(C)(=O)=O)S(=O)(=O)CCN)S(=O)(=O)CC(C)C [XY4-C1] | – | 29800 | –
6 | CC(=O)N[C@H](CC(C)C)CN(CC(=O)N[C@H](CCCCN)CN(CC(=O)N[C@H](CC(C)C)CN(CC(=O)N[C@H](CCC(=O)O)CN(CC(=O)N[C@H](CC(C)C)CN(CC(=O)N[C@H](CCC(=O)O)CN(CC(=O)N[C@H](C)CN(CC(=O)N[C@H](CCCCN)CN(CC(=O)N[C@H](C)CN(CC(=O)N[C@H](CCC(=O)O)CN(CC(=O)N[C@H](CC(C)C)CN(CC(=O)NCCCCCC(=O)NCCCCCC(=O)N[C@@H](CSCC(=O)OCCOCCOCCOCCOCCOCCOCCOCCO[C@H]1CC[C@@]2(C)C(=CC[C@H]3[C@@H]4CC[C@H]([C@H](C)CCCC(C)C)[C@@]4(C)CC[C@@H]32)C1)C(N)=O)S(=O)(=O)CC(C)C)S(C)(=O)=O)S(=O)(=O)CCN)S(C)(=O)=O)S(=O)(=O)CCN)S(=O)(=O)CC(C)C)S(=O)(=O)CCN)S(=O)(=O)CCN)S(C)(=O)=O)S(=O)(=O)CCN)S(=O)(=O)CC(C)C [XY4-C2] | – | 2850 | –
7 | CC(=O)N[C@H](CC(C)C)CN(CC(=O)N[C@H](CCCCN)CN(CC(=O)N[C@H](CC(C)C)CN(CC(=O)N[C@H](CCC(=O)O)CN(CC(=O)N[C@H](CC(C)C)CN(CC(=O)N[C@H](CCC(=O)O)CN(CC(=O)N[C@H](C)CN(CC(=O)N[C@H](CCCCN)CN(CC(=O)N[C@H](C)CN(CC(=O)N[C@H](CCC(=O)O)CN(CC(=O)N[C@H](CC(C)C)CN(CC(=O)NCCCCCC(=O)NCCCCCC(=O)N[C@@H](CSCC(=O)OCCOCCOCCOCCOCCOCCOCCOCCOCCOCCOCCOCCO[C@H]1CC[C@@]2(C)C(=CC[C@H]3[C@@H]4CC[C@H]([C@H](C)CCCC(C)C)[C@@]4(C)CC[C@@H]32)C1)C(N)=O)S(=O)(=O)CC(C)C)S(C)(=O)=O)S(=O)(=O)CCN)S(C)(=O)=O)S(=O)(=O)CCN)S(=O)(=O)CC(C)C)S(=O)(=O)CCN)S(=O)(=O)CCN)S(C)(=O)=O)S(=O)(=O)CCN)S(=O)(=O)CC(C)C [XY4-C3] | – | 920 | –
8 | CC(=O)N[C@H](CC(C)C)CN(CC(=O)N[C@H](CCCCN)CN(CC(=O)N[C@H](CC(C)C)CN(CC(=O)N[C@H](CCC(=O)O)CN(CC(=O)N[C@H](CC(C)C)CN(CC(=O)N[C@H](CCC(=O)O)CN(CC(=O)N[C@H](C)CN(CC(=O)N[C@H](CCCCN)CN(CC(=O)N[C@H](C)CN(CC(=O)N[C@H](CCC(=O)O)CN(CC(=O)N[C@H](CC(C)C)CN(CC(=O)N[C@H](CO)CN(CC(=O)N[C@H](CO)CN(CC(=O)N[C@@H](CSCC(=O)OCCOCCOCCOCCOCCOCCOCCOCCO[C@H]1CC[C@@]2(C)C(=CC[C@H]3[C@@H]4CC[C@H]([C@H](C)CCCC(C)C)[C@@]4(C)CC[C@@H]32)C1)C(N)=O)S(C)(=O)=O)S(C)(=O)=O)S(=O)(=O)CC(C)C)S(C)(=O)=O)S(=O)(=O)CCN)S(C)(=O)=O)S(=O)(=O)CCN)S(=O)(=O)CC(C)C)S(=O)(=O)CCN)S(=O)(=O)CCN)S(C)(=O)=O)S(=O)(=O)CCN)S(=O)(=O)CC(C)C [XY4-C5] | – | 4050 | –
9 | CC(=O)N[C@H](CC(C)C)CN(CC(=O)N[C@H](CCCCN)CN(CC(=O)N[C@H](CC(C)C)CN(CC(=O)N[C@H](CCC(=O)O)CN(CC(=O)N[C@H](CC(C)C)CN(CC(=O)N[C@H](CCC(=O)O)CN(CC(=O)N[C@H](C)CN(CC(=O)N[C@H](CCCCN)CN(CC(=O)N[C@H](C)CN(CC(=O)N[C@H](CCC(=O)O)CN(CC(=O)N[C@H](CC(C)C)CN(CC(=O)N[C@H](CO)CN(CC(=O)N[C@H](CO)CN(CC(=O)N[C@@H](CSCC(=O)OCCOCCOCCOCCOCCOCCOCCOCCOCCOCCOCCOCCO[C@H]1CC[C@@]2(C)C(=CC[C@H]3[C@@H]4CC[C@H]([C@H](C)CCCC(C)C)[C@@]4(C)CC[C@@H]32)C1)C(N)=O)S(C)(=O)=O)S(C)(=O)=O)S(=O)(=O)CC(C)C)S(C)(=O)=O)S(=O)(=O)CCN)S(C)(=O)=O)S(=O)(=O)CCN)S(=O)(=O)CC(C)C)S(=O)(=O)CCN)S(=O)(=O)CCN)S(C)(=O)=O)S(=O)(=O)CCN)S(=O)(=O)CC(C)C [XY4-C6] | – | 2630 | –
10 | CC(=O)N[C@H](CC(C)C)CN(CC(=O)N[C@H](CCCCN)CN(CC(=O)N[C@H](CC(C)C)CN(CC(=O)N[C@H](CCC(=O)O)CN(CC(=O)N[C@H](CC(C)C)CN(CC(=O)N[C@H](CCC(=O)O)CN(CC(=O)N[C@H](C)CN(CC(=O)N[C@H](CCCCN)CN(CC(=O)N[C@H](C)CN(CC(=O)N[C@H](CCC(=O)O)CN(CC(=O)N[C@H](CC(C)C)CN(CC(N)=O)S(=O)(=O)CC(C)C)S(C)(=O)=O)S(=O)(=O)CCN)S(C)(=O)=O)S(=O)(=O)CCN)S(=O)(=O)CC(C)C)S(=O)(=O)CCN)S(=O)(=O)CCN)S(C)(=O)=O)S(=O)(=O)CCN)S(=O)(=O)CC(C)C [XY4] | 132 | – | –
11 | Cc1cc(=O)n(-c2ccccc2)n1C [antipyrine] | – | – | Papp at 30 min, 200 μM ([8]; 200 μM, negative control): < 6 ×10⁻⁶ cm/s
12 | NC(=O)N1c2ccccc2C=Cc2ccccc21 [carbamazepine] | – | – | Papp at 30 min, 50 μM ([8]; 50 μM, positive control): ~150 ×10⁻⁶ cm/s
